Data published in US4764522A, “Ethylenediamine monoamides” (Hoffmann-La Roche Inc., priority 1984, dated 1988).
Structures can show the parent of a compound that is named as a salt. Where two headings read alike, the source gives them in different places.

Experiments:
[1] = toxicity (LD50), p.o. in the mouse; settings: in vivo, po
Protocol: The MAO inhibiting activity of the compounds in accordance with the invention can be determined using standard methods. Thus, the substances to be tested were administered p.o. to rats. Two hours thereafter the animals were killed and the MAO inhibiting activity was measured in homogenates of the brain according to the method described in Biochem. Pharmacol. 12 (1963) 1439-1441, but using phenethylamine (2.10^-5 mol.1^-1) in place of tyramine as the substrate. The thus-determined activity of some compounds in accordance with the invention as well as their toxicity are evident from the following ED50 values (μmol/kg, p.o. in the rat) and LD50 values (mg/kg, p.o. in the mouse), respectively: […]

[2] = molecular target: T1, monoamine oxidase (MAO) (Rattus norvegicus, UniProt P19643); test: MAO inhibiting activity measured in homogenates of the brain two hours after p.o. administration to rats (phenethylamine as substrate); format: in vivo; settings: po, read-out: ED50 (MAO inhibiting activity)
T1 construct: from tissue; host or cells: rat brain homogenate (ex vivo, two hours after p.o. dosing)
T1 sequence (P19643 1-520): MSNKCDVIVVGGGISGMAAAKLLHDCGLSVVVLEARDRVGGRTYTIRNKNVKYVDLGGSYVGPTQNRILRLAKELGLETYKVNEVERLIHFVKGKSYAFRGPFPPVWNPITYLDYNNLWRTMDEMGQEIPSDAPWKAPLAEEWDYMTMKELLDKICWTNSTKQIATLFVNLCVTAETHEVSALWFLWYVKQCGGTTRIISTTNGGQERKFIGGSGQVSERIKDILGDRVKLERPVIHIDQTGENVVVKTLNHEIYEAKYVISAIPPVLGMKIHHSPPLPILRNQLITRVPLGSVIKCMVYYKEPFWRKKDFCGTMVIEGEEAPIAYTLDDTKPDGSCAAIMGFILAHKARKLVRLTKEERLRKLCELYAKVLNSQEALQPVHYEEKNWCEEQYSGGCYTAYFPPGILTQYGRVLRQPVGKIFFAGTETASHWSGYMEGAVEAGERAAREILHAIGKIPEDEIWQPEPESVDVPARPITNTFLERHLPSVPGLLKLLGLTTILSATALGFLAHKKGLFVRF
Protocol: The MAO inhibiting activity of the compounds in accordance with the invention can be determined using standard methods. Thus, the substances to be tested were administered p.o. to rats.

SMILES | LD50 [1] [mg/kg] | ED50 ([2]; p.o. in the rat, brain homogenates 2 hours after administration, substrate phenethylamine 2.10^-5 mol.1^-1) [µmol/kg] | ED50 ([2]; rat, 2 h) [µmol/kg]
NCCNC(=O)c1cccc(Cl)n1 [N-(2-aminoethy)-6-chloropyridine-2-carboxamide hydrochloride] | 625 to 1250 | 10 | –
Cl.NCCNC(=O)c1csc(Cl)n1 [N-(2-aminoethyl)-2-chlorothiazole-4-carboxamide hydrochloride] | 2500 to 5000 | – | 6
Cl.Cl.NCCNC(=O)c1ncccc1N [N-(2-aminoethyl)-3-aminopyridine-2-carboxamide dihydrochloride] | 2500 to 5000 | – | 5
Cl.NCCNC(=O)c1cc(Br)ccn1 [N-(2-aminoethyl)-4-bromopyridine-2-carboxamide hydrochloride] | 1000 to 2000 | – | 4
Cl.NCCNC(=O)c1cc(Cl)ccn1 [N-(2-aminoethyl)-4-chloropyridine-2-carboxamide hydrochloride] | 1250 to 2500 | – | 5
Cl.NCCNC(=O)c1ncsc1Br [N-(2-aminoethyl)-5-bromothiazole-4-carboxamide hydrochloride] | 1250 to 2500 | – | 10
Cl.NCCNC(=O)c1ccc(Cl)cn1 [N-(2-aminoethyl)-5-chloropyridine-2-carboxamide hydrochloride] | 1000 to 2000 | – | –
Cc1cc(C(=O)NCCN)no1.Cl [N-(2-aminoethyl)-5-methylisoxazole-3-carboxamide hydrochloride] | > 4000 | – | 20
Cl.NCCNC(=O)c1cccc(Br)n1 [N-(2-aminoethyl)-6-bromopyridine-2-carboxamide hydrochloride] | 1000 to 2000 | – | 8
Cl.Cl.NCCNC(=O)c1ccccn1 [N-(2-aminoethyl)-pyridine-2-carboxamide dihydrochloride] | > 4000 | – | 1.7
